Data published in ChEMBL document CHEMBL1130562, “Potent and selective inhibitors of the Abl-kinase: phenylamino-pyrimidine (PAP) derivatives” (Bioorg Med Chem Lett, 1997).

How the values were obtained:
[1] = target: Platelet-derived growth factor receptor (Homo sapiens, UniProt P09619+P16234); assay: Inhibition of the platelet-derived growth factor receptor.
[2] = target: cAMP-dependent protein kinase (PKA) (Homo sapiens, UniProt P22694+P17612+P22612); assay: Inhibition of protein kinase A.; format: protein assay, unidentified
[3] = target: Epidermal growth factor receptor (Homo sapiens, UniProt P00533)
Sequence of Epidermal growth factor receptor (P00533 whole entry): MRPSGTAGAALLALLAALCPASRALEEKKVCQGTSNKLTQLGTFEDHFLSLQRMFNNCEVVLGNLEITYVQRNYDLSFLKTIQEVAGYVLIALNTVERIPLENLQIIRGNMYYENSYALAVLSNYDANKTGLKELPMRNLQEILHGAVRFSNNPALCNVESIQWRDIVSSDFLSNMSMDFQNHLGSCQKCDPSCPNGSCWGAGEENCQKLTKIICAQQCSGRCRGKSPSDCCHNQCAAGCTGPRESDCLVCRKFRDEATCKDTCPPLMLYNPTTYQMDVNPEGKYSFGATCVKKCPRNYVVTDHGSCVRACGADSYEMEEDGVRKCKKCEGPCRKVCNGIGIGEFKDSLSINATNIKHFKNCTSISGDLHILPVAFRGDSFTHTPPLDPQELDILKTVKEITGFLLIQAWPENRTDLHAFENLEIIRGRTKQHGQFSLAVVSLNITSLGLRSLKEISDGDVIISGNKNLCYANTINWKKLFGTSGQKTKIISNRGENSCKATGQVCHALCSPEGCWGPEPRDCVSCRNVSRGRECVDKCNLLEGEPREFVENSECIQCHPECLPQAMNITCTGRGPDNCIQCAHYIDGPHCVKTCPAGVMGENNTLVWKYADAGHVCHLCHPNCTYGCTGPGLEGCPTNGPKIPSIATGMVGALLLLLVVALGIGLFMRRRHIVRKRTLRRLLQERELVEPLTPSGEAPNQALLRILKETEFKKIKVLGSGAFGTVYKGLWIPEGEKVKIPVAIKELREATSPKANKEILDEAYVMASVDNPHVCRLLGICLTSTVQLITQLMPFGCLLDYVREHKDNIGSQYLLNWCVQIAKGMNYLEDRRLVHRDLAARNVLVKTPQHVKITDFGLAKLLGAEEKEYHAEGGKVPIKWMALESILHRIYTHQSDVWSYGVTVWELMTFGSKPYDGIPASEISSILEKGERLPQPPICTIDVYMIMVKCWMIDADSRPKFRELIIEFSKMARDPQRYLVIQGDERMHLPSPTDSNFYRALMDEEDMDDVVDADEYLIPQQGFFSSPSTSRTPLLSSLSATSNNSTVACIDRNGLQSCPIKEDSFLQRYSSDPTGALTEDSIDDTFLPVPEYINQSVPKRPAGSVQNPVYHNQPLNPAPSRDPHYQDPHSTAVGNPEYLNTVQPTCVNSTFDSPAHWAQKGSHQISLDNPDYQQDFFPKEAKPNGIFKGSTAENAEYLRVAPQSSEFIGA
Description: Inhibition of the epidermal growth factor receptor.

[4] = target: Proto-oncogene tyrosine-protein kinase Src (Homo sapiens, UniProt P12931)
Sequence of Proto-oncogene tyrosine-protein kinase Src (P12931 2-536 limits assumed): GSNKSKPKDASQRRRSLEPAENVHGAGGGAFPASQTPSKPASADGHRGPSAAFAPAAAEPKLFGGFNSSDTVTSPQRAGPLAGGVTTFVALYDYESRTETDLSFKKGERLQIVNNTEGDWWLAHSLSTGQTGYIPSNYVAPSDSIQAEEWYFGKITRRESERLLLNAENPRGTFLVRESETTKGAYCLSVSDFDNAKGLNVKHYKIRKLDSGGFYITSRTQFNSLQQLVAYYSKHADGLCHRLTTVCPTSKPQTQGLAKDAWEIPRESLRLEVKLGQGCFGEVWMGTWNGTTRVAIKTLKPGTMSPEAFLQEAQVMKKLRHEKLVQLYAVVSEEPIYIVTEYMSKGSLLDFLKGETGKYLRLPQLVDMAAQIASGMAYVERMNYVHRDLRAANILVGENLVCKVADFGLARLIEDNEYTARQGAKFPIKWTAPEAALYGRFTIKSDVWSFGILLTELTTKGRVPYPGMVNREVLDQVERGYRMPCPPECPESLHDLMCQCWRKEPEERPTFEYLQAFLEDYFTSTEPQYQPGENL
Description: Inhibition of c-Src-tyrosine kinase.

[5] = target: Tyrosine-protein kinase ABL1 (Homo sapiens, UniProt P00519)
Sequence of Tyrosine-protein kinase ABL1 (P00519 whole entry, looked up): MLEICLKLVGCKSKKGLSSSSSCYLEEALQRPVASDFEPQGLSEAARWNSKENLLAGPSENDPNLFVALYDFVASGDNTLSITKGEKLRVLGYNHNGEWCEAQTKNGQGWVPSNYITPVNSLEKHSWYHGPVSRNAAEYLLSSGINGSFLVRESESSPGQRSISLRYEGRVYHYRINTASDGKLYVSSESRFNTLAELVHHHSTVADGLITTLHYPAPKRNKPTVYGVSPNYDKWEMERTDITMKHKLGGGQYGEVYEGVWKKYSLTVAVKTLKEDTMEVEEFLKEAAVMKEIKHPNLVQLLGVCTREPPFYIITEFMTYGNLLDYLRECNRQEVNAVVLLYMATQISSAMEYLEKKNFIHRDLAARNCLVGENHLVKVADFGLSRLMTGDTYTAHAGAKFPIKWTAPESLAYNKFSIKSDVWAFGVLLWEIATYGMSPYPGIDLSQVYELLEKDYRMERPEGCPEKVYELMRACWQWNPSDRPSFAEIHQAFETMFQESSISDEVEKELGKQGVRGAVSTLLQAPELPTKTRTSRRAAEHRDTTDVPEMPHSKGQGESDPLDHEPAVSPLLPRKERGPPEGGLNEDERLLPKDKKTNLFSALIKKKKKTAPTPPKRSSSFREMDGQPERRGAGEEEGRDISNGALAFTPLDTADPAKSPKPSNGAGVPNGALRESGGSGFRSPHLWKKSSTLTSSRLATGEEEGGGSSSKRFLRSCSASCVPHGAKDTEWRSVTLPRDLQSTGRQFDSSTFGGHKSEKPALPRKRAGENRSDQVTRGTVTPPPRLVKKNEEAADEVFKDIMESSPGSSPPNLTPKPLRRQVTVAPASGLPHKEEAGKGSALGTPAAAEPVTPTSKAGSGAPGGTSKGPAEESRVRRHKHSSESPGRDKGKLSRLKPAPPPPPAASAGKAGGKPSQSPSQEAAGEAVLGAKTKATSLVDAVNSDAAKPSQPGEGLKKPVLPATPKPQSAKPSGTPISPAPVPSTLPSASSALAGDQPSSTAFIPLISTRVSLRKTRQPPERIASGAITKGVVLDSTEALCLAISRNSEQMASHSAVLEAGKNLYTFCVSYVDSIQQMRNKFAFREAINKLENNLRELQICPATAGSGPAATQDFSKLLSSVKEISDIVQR
Description: Inhibition of v-Abl tyrosine kinase.

[6] = target: Protein kinase C delta type (Homo sapiens, UniProt Q05655); assay: Inhibition of protein kinase C delta.
Sequence of Protein kinase C delta type (Q05655 whole entry): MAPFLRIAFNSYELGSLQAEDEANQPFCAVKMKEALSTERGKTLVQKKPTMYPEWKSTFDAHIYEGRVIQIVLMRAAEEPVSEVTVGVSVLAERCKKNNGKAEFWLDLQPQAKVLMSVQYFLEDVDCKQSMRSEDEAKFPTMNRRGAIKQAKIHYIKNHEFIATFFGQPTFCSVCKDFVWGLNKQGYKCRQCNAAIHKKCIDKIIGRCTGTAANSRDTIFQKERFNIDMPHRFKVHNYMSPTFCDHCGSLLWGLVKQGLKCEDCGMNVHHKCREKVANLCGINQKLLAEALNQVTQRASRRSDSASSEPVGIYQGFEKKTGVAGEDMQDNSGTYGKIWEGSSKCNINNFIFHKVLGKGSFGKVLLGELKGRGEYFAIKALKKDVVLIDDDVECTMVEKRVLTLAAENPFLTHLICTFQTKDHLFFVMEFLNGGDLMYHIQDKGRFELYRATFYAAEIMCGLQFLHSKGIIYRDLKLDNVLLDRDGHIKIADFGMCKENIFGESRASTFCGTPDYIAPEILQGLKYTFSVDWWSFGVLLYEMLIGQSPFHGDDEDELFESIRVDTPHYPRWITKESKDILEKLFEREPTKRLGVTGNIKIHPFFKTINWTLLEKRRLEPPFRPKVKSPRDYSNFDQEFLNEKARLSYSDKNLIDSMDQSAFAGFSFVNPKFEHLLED

[7] = target: Protein kinase C alpha type (Homo sapiens, UniProt P17252); assay: Inhibition of protein kinase C alpha.
[8] = Dissociation constant pKa was determined; format: physicochemical

IC50 [1]	IC50 [2]	IC50 [3]	IC50 [4]	IC50 [5]	IC50 [6]	IC50 [7]	SMILES	pKa [8]
> 100 µM	> 500 µM		90 µM	3.8 µM			O=C(Nc1cccc(Nc2nccc(-c3cccnc3)n2)c1)c1ccccn1	
> 100 µM	> 500 µM	> 100 µM	> 100 µM	61 µM	> 500 µM	2.6 µM	O=[N+]([O-])c1cccc(Nc2nccc(-c3ccncc3)n2)c1	
> 100 µM	> 500 µM	100 µM	93 µM	34 µM	> 500 µM	0.79 µM	O=[N+]([O-])c1cccc(Nc2nccc(-c3cccnc3)n2)c1	
> 10 µM	> 500 µM	> 100 µM	> 100 µM	1.5 µM	23 µM	1.6 µM	Clc1cccc(Nc2nccc(-c3cccnc3)n2)c1	
> 100 µM	6 µM		14 µM	0.7 µM	> 500 µM	210 µM	Nc1cccc(Nc2nccc(-c3cccnc3)n2)c1	
> 10 µM	> 500 µM		90 µM	5.1 µM			COC(=O)c1cccc(Nc2nccc(-c3cccnc3)n2)c1	
18 µM	> 500 µM	> 100 µM	1.6 µM	3.3 µM	21 µM	1 µM	c1cncc(-c2ccnc(Nc3cccc(-n4ccnc4)c3)n2)c1	
20 µM	> 500 µM	> 50 µM	3 µM	0.3 µM			O=C(Nc1cccc(Nc2nccc(-c3cccnc3)n2)c1)c1cccs1	
> 10 µM			126 µM	8 µM	> 100 µM	45 µM	O=C(O)c1cccc(Nc2nccc(-c3cccnc3)n2)c1	
> 100 µM	> 500 µM	> 100 µM	> 100 µM	1.2 µM	> 500 µM	2.5 µM	O=[N+]([O-])c1cccc(Nc2nccc(-c3ccccn3)n2)c1	
> 10 µM	340 µM	7.1 µM	4.9 µM	1 µM	34 µM	1.5 µM	c1cc(Nc2nccc(-c3cccnc3)n2)cc(OCCn2ccnc2)c1	
> 10 µM			9.8 µM	0.4 µM			NCCCNC(=O)c1cccc(Nc2nccc(-c3cccnc3)n2)c1	
> 10 µM			16 µM	0.6 µM			Nc1cccc(Nc2nccc(-c3ccncc3)n2)c1	
> 10 µM	> 500 µM	100 µM	> 100 µM	1.8 µM	39 µM	10.5 µM	c1ccc(Nc2nccc(-c3cccnc3)n2)cc1	

The remaining lines, values behind:

SMILES	IC50 [1]	IC50 [2]	IC50 [3]	IC50 [4]	IC50 [5]	IC50 [6]	IC50 [7]	pKa [8]
CN1CCN(Cc2ccc(C(=O)Nc3cccc(Nc4nccc(-c5cccnc5)n4)c3)cc2)CC1	0.2 µM	475 µM	> 100 µM	7.8 µM	0.1 µM			
COc1ccccc1C(=O)Nc1cccc(Nc2nccc(-c3cccnc3)n2)c1	1 µM	> 500 µM	100 µM	> 100 µM	1.9 µM	> 500 µM	0.32 µM	
FC(F)C(F)(F)Oc1cccc(Nc2nccc(-c3ccc(Cl)cc3)n2)c1	> 10 µM	> 500 µM	> 100 µM	> 100 µM	> 50 µM	> 100 µM	0.85 µM	
O=C(O)c1ccccc1C(=O)Nc1cccc(Nc2nccc(-c3cccnc3)n2)c1	> 100 µM	> 500 µM		44 µM	2 µM			
Cc1ccc(NC(=O)c2ccccc2)cc1Nc1nccc(-c2cccnc2)n1		> 500 µM			0.4 µM			
N#Cc1ccc(C(=O)Nc2cccc(Nc3nccc(-c4cccnc4)n3)c2)cc1	1.5 µM	> 500 µM	> 100 µM	> 100 µM	1.3 µM	> 500 µM	0.35 µM	
FC(F)C(F)(F)Oc1cccc(Nc2nccc(-c3c[nH]c4ccccc34)n2)c1	> 10 µM	73 µM	1.8 µM	2.2 µM	0.37 µM	1.4 µM	0.29 µM	
O=C(Nc1cccc(Nc2nccc(-c3cccnc3)n2)c1)c1ccc(F)cc1	3 µM	> 500 µM	> 50 µM	> 100 µM	0.2 µM			
CCCCCC(=O)Nc1cccc(Nc2nccc(-c3cccnc3)n2)c1	0.6 µM		> 100 µM	3.7 µM	0.2 µM	19 µM	2 µM	
O=C(Nc1cccc(Nc2nccc(-c3cccnc3)n2)c1)c1cccnc1	50 µM	> 500 µM	> 100 µM	9 µM	0.15 µM	17 µM	1.7 µM	2.56
O=C(Nc1cccc(Nc2nccc(-c3cccnc3)n2)c1)C1CCCCC1	0.8 µM	> 500 µM	> 100 µM	46 µM	0.45 µM			
O=C(Nc1cccc(Nc2nccc(-c3cccnc3)n2)c1)c1ccccc1		> 500 µM			0.4 µM			
NCCCn1ccc2c(-c3ccnc(Nc4cccc(OC(F)(F)C(F)F)c4)n3)cccc21	5 µM	2 µM	0.53 µM	0.5 µM	0.35 µM	4.4 µM	0.18 µM	
O=C(Nc1cccc(Nc2nccc(-c3cccnc3)n2)c1)c1ccncc1	> 100 µM	> 500 µM	> 100 µM	78 µM	0.5 µM	24 µM	1.3 µM	
Cc1ccc(C(=O)Nc2cccc(Nc3nccc(-c4cccnc4)n3)c2)cc1	0.8 µM	> 500 µM	> 100 µM	> 100 µM	1 µM			
Cc1ccc(NC(=O)c2ccc(Cl)cc2)cc1Nc1nccc(-c2cccnc2)n1		> 100 µM			0.8 µM	> 100 µM		
Cc1ccc(C(=O)Nc2ccc(C)c(Nc3nccc(-c4cccnc4)n3)c2)cc1		> 100 µM						
Cc1ccc(NC(=O)c2ccc3ccccc3c2)cc1Nc1nccc(-c2cccnc2)n1		> 100 µM			0.2 µM			
Cc1ccc(N)cc1Nc1nccc(-c2cccnc2)n1		> 500 µM			1.5 µM		240 µM	
COc1ccccc1C(=O)Nc1ccc(C)c(Nc2nccc(-c3cccnc3)n2)c1		> 500 µM			0.8 µM	> 100 µM	80 µM	
CC(=O)Nc1ccc(C)c(Nc2nccc(-c3cccnc3)n2)c1		> 500 µM			5.8 µM		500 µM	
FC(F)C(F)(F)Oc1cccc(Nc2nccc(-c3ccncc3)n2)c1	> 10 µM	> 500 µM	> 100 µM	> 100 µM	> 100 µM	> 100 µM	0.3 µM	
